Data published in US20210009613A1, “ARYLPHOSPHINE OXIDES FOR INHIBITING KINASE ACTIVITY” (Shenzhen TargetRx, Inc., priority 2017, published 2021).

Legend:
[1] = test system: I1171N/T/S; settings: Crizotinib-resistant mutation; cited from earlier work
[2] = target: G1202R (Homo sapiens, UniProt Q9UM73, G1202R); settings: Crizotinib-resistant mutation; cited from earlier work
[3] = test system: F1174C/V; settings: Crizotinib-resistant mutation; cited from earlier work
[4] = target: T1, Ba/F3 [EML4-ALK L1196M] (Homo sapiens, UniProt Q9UM73, L1196M, cells depend on it); test: Cytotoxicity test (CellTiter-Glo), Ba/F3 [EML4-ALK L1196M]; assay type: cell-based; settings: 72 hours, CellTiter-Glo; read-out: IC50(nM) ALK[L1196M] (Ba/F3)
T1 construct: IC50(nM) ALK[L1196M]; (Ba/F3); other: 72 hours, CellTiter-Glo; Ba/F3 [EML4-ALK L1196M]; fused on or other part: Q9HC35 (Echinoderm microtubule-associated protein-like 4)
Procedure: (§1) The in vitro anti-proliferative activity of the compounds of the present disclosure against three types of cells that are cultured in vitro was tested by CellTiter-Glo method.
(§2) Cell lines: Ba/F3 parental; Ba/F3 [EML4-ALK] (From WuXi PharmaTech) and Ba/F3 [EML4-ALK L1196M] (From WuXi PharmaTech); wherein, Ba/F3 parental was cultured in RPMI1640 medium containing 10 ng/ml IL-3, […], 100 U/ml penicillin, and 100 μg/ml streptomycin, Ba/F3 [EML4-ALK] and Ba/F3 [EML4-ALK L1196M] were cultured in RPMI1640 medium containing 10% fetal bovine serum, 100 U/ml penicillin, and 100 μg/ml streptomycin.
(§3) Reagents and materials: RPMI-1640 (GIBCO, Cat. No. A10491-01); fetal bovine serum (GIBCO, Cat. No. 10099141); 0.25% trypsin-EDTA (GIBCO, Cat. No. 25200); penicillin-streptomycin, liquid (GIBCO, Cat. No. 15140-122); DMSO (Sigma, Cat. No. D2650); CellTiter-Glo Test Kit (Promega, Cat. No. G7572), and 96-well plate (Corning, Cat. No. 3365).
(§4) Specific experimental procedures: • 1. The test compounds were dissolved in DMSO to make stock solutions and subjected to a series gradient dilution to give solutions with 10-fold working concentration. • 2. The cells in the logarithmic growth phase were diluted with the culture solution to adjust to the specific cell concentration, 90 μl of cell suspension was added to the 96-well plate to make the cell density reach the specified concentration. The plate was incubated in a incubator at 37° C., containing 5% carbon dioxide gas overnight. • 3. 10 μl drug solutions were added to each well of the 96-well plate inoculated with cells. 10 concentrations of the compounds were tested starting from the highest concentration of 20 μM with a 3-fold series gradient dilution in duplicate. • 4. After continuously cultured for 72 hours, the cells were detected by CellTiter-Glo for the cell viability. The dose-effect curve was made using GraphPad Prism software and IC50 was calculated.

[5] = test system: Ba/F3 [EML4-ALK L1196M]; test: as above; assay type: cell-based; settings: ratio of Ba/F3 IC50 values
Procedure: as §1, §2, §3, §4

[6] = test system: Ba/F3 parental; test: Cytotoxicity test (CellTiter-Glo), Ba/F3 parental; assay type: cell-based; settings: Mus musculus, BaF3, 72 hours
Procedure: as §1, §2, §3, §4

[7] = target: ALK [L1196M] (Homo sapiens, UniProt Q9UM73, L1196M); test: Kinase inhibition assay, ALK [L1196M]; assay type: biochemical
Procedure: (§5) Compound preparation: The test compounds were dissolved in DMSO to make 20 mM stock solutions. The compounds were diluted in DMSO to 0.1 mM (a dilution with 100 times the final concentration) before use, and a 3-fold series gradient dilution with 11 concentrations was made. Dilutions with 4 times of the final concentration were prepared by diluting with buffer when dosing.
(§6) Kinase assay: after preparing the buffer solution, the enzyme was mixed with pre-diluted compounds with different concentrations, and placed at room temperature for 30 minutes in duplicate. The corresponding substrate and ATP were added thereto and reacted at room temperature for 60 minutes (both a negative and a positive control were set). After the reaction, antibody was added for detection, and after incubation at room temperature for 60 minutes, Evnvision detection was carried out, and data was collected. Data was analyzed and fit according to XLfit5 software. IC50 was calculated by the following formula: (IC50=[(ABS test-ABS begin)/(ABS control-ABS begin)]×100).

[8] = target: ALK [WT] (Homo sapiens, UniProt Q9UM73); test: Kinase inhibition assay, ALK [WT]; assay type: biochemical
Procedure: as §5, §6

[9] = test system: Ba/F3 [EML4-ALK]; test: Cytotoxicity test (CellTiter-Glo), Ba/F3 [EML4-ALK]; assay type: cell-based; settings: ratio of Ba/F3 IC50 values
Procedure: as §1, §2, §3, §4

[10] = target: T2, Ba/F3 [EML4-ALK] (Homo sapiens, UniProt Q9UM73); test: as above; assay type: cell-based; settings: 72 hours, CellTiter-Glo; read-out: IC50(nM) ALK (Ba/F3)
T2 construct: IC50(nM) ALK (Ba/F3); other: 72 hours, CellTiter-Glo; Ba/F3 [EML4-ALK]; fused on or other part: Q9HC35 (Echinoderm microtubule-associated protein-like 4)
Procedure: as §1, §2, §3, §4

ALK [L1196M], sequence (Q9UM73 19-1620 L1196M): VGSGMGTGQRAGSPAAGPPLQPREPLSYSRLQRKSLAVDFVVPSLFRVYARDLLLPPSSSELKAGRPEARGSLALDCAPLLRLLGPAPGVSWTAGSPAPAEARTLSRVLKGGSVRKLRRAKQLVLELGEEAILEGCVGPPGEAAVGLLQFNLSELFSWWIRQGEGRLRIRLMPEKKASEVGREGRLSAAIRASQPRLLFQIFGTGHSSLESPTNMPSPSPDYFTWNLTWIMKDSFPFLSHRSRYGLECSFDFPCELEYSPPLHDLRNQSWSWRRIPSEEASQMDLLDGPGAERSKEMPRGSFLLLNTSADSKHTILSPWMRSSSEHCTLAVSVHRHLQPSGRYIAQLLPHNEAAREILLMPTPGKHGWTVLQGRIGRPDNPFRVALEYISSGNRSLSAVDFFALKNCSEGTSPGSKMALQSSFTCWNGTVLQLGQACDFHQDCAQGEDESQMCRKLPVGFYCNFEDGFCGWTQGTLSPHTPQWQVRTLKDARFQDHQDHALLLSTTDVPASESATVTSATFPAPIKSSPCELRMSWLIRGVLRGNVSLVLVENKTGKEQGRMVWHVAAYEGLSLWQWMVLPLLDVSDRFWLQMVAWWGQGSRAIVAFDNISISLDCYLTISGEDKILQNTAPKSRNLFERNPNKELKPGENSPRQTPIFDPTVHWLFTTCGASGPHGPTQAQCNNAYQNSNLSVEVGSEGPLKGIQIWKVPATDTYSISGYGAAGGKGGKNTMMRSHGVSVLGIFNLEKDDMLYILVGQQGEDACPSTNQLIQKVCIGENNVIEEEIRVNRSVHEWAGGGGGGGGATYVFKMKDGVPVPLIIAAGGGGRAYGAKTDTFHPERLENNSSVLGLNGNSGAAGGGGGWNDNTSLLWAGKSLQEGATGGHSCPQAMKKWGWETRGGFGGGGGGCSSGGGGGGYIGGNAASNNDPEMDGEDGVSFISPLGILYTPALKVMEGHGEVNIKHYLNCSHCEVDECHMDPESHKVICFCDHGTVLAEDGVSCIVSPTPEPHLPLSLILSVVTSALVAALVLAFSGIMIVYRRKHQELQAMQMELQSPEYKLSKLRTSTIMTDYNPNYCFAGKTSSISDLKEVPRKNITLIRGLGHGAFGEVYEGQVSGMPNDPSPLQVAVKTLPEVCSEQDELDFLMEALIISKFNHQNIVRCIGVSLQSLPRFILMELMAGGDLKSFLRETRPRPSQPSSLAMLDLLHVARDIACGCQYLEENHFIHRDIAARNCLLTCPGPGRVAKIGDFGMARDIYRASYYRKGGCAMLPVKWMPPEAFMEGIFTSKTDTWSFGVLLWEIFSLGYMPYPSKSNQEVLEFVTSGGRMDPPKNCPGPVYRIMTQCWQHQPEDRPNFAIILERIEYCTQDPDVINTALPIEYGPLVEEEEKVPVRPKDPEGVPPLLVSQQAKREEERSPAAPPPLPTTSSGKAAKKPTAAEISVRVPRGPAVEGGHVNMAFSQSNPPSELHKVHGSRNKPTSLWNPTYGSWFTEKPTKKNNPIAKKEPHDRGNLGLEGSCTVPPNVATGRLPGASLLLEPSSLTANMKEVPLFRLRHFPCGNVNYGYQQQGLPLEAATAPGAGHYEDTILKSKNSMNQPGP
T2 sequence (Q9UM73 whole entry, change not shown, the tested form may be a part): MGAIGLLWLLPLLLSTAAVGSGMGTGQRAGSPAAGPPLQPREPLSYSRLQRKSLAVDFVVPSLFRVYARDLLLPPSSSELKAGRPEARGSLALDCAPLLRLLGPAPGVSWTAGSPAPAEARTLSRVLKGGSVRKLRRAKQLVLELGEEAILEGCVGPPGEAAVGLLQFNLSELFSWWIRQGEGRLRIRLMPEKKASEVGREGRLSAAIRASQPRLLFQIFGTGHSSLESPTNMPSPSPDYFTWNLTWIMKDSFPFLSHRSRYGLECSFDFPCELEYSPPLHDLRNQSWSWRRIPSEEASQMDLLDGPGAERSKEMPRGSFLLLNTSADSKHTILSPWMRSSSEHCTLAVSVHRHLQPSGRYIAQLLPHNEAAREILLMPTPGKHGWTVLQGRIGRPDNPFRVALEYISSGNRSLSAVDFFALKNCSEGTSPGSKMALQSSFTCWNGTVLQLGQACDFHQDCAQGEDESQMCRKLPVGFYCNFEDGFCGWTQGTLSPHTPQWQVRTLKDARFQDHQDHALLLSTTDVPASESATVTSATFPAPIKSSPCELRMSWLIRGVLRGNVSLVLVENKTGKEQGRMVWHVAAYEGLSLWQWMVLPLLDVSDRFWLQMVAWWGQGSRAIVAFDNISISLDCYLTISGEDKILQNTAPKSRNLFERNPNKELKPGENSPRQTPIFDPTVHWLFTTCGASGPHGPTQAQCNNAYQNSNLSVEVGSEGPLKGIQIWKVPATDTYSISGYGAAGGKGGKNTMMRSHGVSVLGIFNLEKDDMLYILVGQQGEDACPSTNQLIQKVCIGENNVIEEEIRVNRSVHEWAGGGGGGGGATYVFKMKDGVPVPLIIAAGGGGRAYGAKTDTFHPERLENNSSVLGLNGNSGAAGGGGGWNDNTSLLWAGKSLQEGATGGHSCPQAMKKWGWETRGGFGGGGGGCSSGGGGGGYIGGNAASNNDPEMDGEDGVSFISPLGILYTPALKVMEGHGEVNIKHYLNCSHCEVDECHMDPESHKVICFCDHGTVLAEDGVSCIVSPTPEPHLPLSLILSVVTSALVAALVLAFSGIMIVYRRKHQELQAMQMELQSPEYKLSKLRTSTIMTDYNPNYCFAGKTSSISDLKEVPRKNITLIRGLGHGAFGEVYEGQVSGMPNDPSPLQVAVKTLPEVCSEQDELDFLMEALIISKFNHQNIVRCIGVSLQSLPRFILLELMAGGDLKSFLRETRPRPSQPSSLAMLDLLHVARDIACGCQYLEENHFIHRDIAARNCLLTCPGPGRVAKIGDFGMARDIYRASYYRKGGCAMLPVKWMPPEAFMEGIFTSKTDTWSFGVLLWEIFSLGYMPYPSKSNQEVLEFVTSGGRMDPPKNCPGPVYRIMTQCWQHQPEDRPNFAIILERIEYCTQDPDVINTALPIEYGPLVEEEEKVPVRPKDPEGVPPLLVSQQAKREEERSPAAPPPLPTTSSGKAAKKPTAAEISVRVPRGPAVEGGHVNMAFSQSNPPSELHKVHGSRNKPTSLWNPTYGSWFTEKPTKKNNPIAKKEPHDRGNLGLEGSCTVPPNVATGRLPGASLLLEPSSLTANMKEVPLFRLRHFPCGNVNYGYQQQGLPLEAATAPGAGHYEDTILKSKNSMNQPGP
ALK [WT], sequence (Q9UM73 19-1620): as the sequence (Q9UM73 19-1620 L1196M) above, with M1178L counted along it
T1 sequence (Q9UM73 whole entry L1196M, the tested form may be a part): as the sequence (Q9UM73 whole entry, change not shown, the tested form may be a part) above, with L1196M counted along it
G1202R, sequence (Q9UM73 19-1620 G1202R): as the sequence (Q9UM73 19-1620 L1196M) above, with M1178L, G1184R counted along it

IC50 [7] | IC50 [8] | Compound | effect on I1171N/T/S [1] | effect on G1202R [2] | effect on F1174C/V [3] | GI50 [4] | Selectivity parental/ALK[L1196M] [5] | IC50 [6] | Selectivity parental/ALK [9] | GI50 [10]
50 to 100 nM | 10 to 50 nM | CP(C)(=O)c1ccccc1Nc1nc(Nc2ccc(CCN)nc2OCC(F)(F)F)ncc1Cl [Example 17, (2-((2-((6-(2-aminoethyl)-2-(2,2,2-trifluoroethoxy)pyridin-3-yl)amino)-5-chloropyrimidin-4-yl)amino)phenyl)dimethylphosphine oxide] | – | – | – | 400 to 1000 nM | 0~50 | ≥ 1000 nM | 50~100 | 100 to 400 nM
50 to 100 nM | 10 to 50 nM | CNCCc1ccc(Nc2ncc(Cl)c(Nc3ccccc3P(C)(C)=O)n2)c(OCC(F)(F)F)n1 [Example 18, (2-((5-chloro-2-((6-(2-(methylamino)ethyl)-2-(2,2,2-trifluoroethoxy)pyridin-3-yl)amino)pyrimidin-4-yl)amino)phenyl)dimethylphosphine oxide] | – | – | – | 100 to 400 nM | 0~50 | ≥ 1000 nM | 50~100 | 100 to 400 nM
50 to 100 nM | 10 to 50 nM | CN(C)CCc1ccc(Nc2ncc(Cl)c(Nc3ccccc3P(C)(C)=O)n2)c(OCC(F)(F)F)n1 [Example 19, (2-((5-chloro-2-((6-(2-(dimethylamino)ethyl)-2-(2,2,2-trifluoroethoxy)pyridin-3-yl)amino)pyrimidin-4-yl)amino)phenyl)dimethylphosphine oxide] | – | – | – | 100 to 400 nM | 50~100 | ≥ 1000 nM | 100~200 | 50 to 100 nM

Further lines, the compound ahead of its results:

Compound | IC50 [7] | IC50 [8] | effect on I1171N/T/S [1] | effect on G1202R [2] | effect on F1174C/V [3] | GI50 [4] | Selectivity parental/ALK[L1196M] [5] | IC50 [6] | Selectivity parental/ALK [9] | GI50 [10]
CCc1cc2c(cc1N1CCC(N3CCOCC3)CC1)C(C)(C)c1[nH]c3cc(C#N)ccc3c1C2=O [Alectinib] | – | – | no effect | – | – | – | – | – | – | –
Cc1cc(Nc2ncc(Cl)c(Nc3ccccc3S(=O)(=O)C(C)C)n2)c(OC(C)C)cc1C1CCNCC1 [Ceritinib] | – | – | – | neither of them has effect | no effect | – | – | – | – | –
COc1nc(N2CCN(C)CC2)ccc1Nc1nc(Nc2ccccc2P(C)(C)=O)c2cc[nH]c2n1 [Example 14, (2-((2-((2-methoxy-6-(4-methylpiperazin-1-yl)pyridin-3-yl)amino)-7H-pyrrolo[2,3-d]pyrimidin-4-yl)amino)phenyl)dimethylphosphine oxide] | ≤ 5 nM | ≤ 5 nM | – | – | – | ≤ 50 nM | 0~50 | 400 to 1000 nM | 50~100 | ≤ 50 nM
COc1nc(N(C)CCN(C)C)ccc1Nc1nc(Nc2ccccc2P(C)(C)=O)c2cc[nH]c2n1 [Example 15] | ≤ 5 nM | 5 to 10 nM | – | – | – | 50 to 100 nM | 0~50 | ≥ 1000 nM | 50~100 | ≤ 50 nM
COc1nc(N2CCC(N3CCN(C)CC3)CC2)ccc1Nc1nc(Nc2ccccc2P(C)(C)=O)c2cc[nH]c2n1 [Example 16, (2-((2-((2-methoxy-6-(4-(4-methylpiperazin-1-yl)piperidin-1-yl)pyridin-3-yl)amino)-7H-pyrrolo[2,3-d]pyrimidin-4-yl)amino)phenyl)dimethylphosphine oxide] | 5 to 10 nM | ≤ 5 nM | – | – | – | 50 to 100 nM | 0~50 | 400 to 1000 nM | 50~100 | ≤ 50 nM
